The record followed here is US11964969B2, “Crystal forms of thiazole compound and application thereof” (PHAENO THERAPEUTICS CO., LTD, priority 2018, dated 2024).

Data set [1] can be described thus: Hygroscopicity study by dynamic vapor sorption (DVS). The data set is classed as physicochemical. The settings on record: 25° C. and 80% RH. The protocol:
Dynamic Vapor Sorption (DVS) Method Used in the Present Disclosure
Instrument model: SMS DVS Advantage dynamic vapor sorption apparatus
Test condition: The sample (10˜15 mg) was taken and put into a DVS sample pan for testing.
The detailed DVS parameters were as follows:
Equilibration: dm/dt=0.01%/min (The shortest time: 10 min, and the longest time: 180 min)
Drying: Dried for 120 min at 0% RH
RH (%) test gradient: 10%
Range of RH (%) test gradient: 0%-90%-0%
The classification of hygroscopicity evaluation was as follows:
Example 4: Study on the Hygroscopicity of the Crystal Form B of the Compound of Formula (II)
SMS DVS Advantage dynamic vapor sorption apparatus
10-15 mg of the crystal form B of the compound of formula (II) was taken and put into a DVS sample pan for testing.

Data set [2] has as its system GHSV-UL 46 strain of herpes simplex virus-1 (HSV-1). Briefly: Assay of cytopathic effect (CPE) of herpes simplex virus-1 in Vero E6 cells. The data set is classed as cell-based. The following applies: Human alphaherpesvirus 1, Vero C1008, 120 h, read-out: HSV-1 Cytopathic Assay EC50. As for the experimental part: Assay Example 1: Assay of Cytopathic Effect of Herpes Simplex Virus-1 (Evaluation In Vitro)
The assay of cytopathic effect (CPE) was used to determine the antiviral activity of the compound against the GHSV-UL 46 strain of herpes simplex virus-1 (HSV-1).
Virus: HSV-1 GHSV-UL46, ATCC #VR-1544
Cell: African green monkey kidney cell, Vero E6, donated by Wuhan Instititute of Virology, Chinese Academy of Sciences.
Cell growth medium: 500 ml of DMEM medium+50 ml of fetal bovine serum+5 ml of double antibody+5 ml of non-essential amino acids.
Medium for the assay of cytopathic effect: 500 ml of DMEM medium+10 ml of fetal bovine serum+5 ml of double antibody+5 ml of non-essential amino acids.
1.4. […]
2.2. […] Each test compound was measured at 8 concentrations in duplicate. […]
3.4. The absorbance value of each well of the cell plate was read with a microplate reader at a wavelength of 450 nm, and 630 nm was used as a reference wavelength. The value of raw data was the absorbance at 450 nm minus the absorbance at 630 nm (raw data=OD450−OD630).
4.1. The antiviral activity of the test compound (% Inhibition) was calculated using the following equation:
[formula] wherein sample is the absorbance value of compound test wells, cell control is the average absorbance value of cell control wells, and virus control is the average absorbance value of virus control wells. […]
Background: Cytopathic effects are the visible damage that an infection or toxin causes in cultured cells.

Data set [3] can be described thus: Evaluation of pharmacokinetics of the compound in mice. The data set is classed as in vivo. The settings on record: male, mouse, plasma, Balb/c mice. The protocol: Assay Example 2: Evaluation of Pharmacokinetics of the Compound
Object of the assay: to test the pharmacokinetics of the compound in mice in vivo.
Balb/c mice (male, 18-22 g, 6-8 weeks old, from Shanghai SLAC)
The pharmacokinetic profile of the compound after intravenous injection and oral administration in the rodents was tested by the standard protocol. The candidate compound was formulated into a corresponding solution, and administered through a single intravenous injection (1.0 mg/kg, 5% of DMSO/95% of 20% hydroxypropyl-beta-cyclodextrin) or an intragastric administration (1.0 mg/kg, 0.5% of methylcellulose MC4000). The whole blood sample was collected within 24 hours, and centrifuged at 3000 g for 15 minutes. […] The resulting mixture was centrifuged and the supernatant was taken out, to which an equal volume of water was added and centrifuged. The supernatant was taken out, and injected as a sample to quantitatively analyze the plasma drug concentration by LC-MS/MS analysis method. The pharmacokinetic parameters were calculated, such as peak concentration, peak time, clearance rate, half-life, area under the drug-time curve, bioavailability, etc.

In the case of `CS(=O)(=O)O.Cc1nc(N(C)C(=O)[C@@H]2Cc3ccc(-c4ccccn4)cc3C2)sc1S(N)(=O)=O`, in data set [1], the Classification of hygroscopicity result is given as “slightly hygroscopic” and the “Weight increase by moisture absorption ΔW” value is on record as 1.158%.
One may read the EC50 as the concentration needed to bring the measured effect to its halfway point. As a reminder, the bioavailability is dose-corrected exposure relative to a reference, in per cent. As a reminder, the clearance is the volume of plasma or blood freed of the substance per unit of time. For the compound `Cc1nc(N(C)C(=O)[C@@H]2Cc3ccc(-c4ccccn4)cc3C2)sc1S(N)(=O)=O` [Compound of formula (I)], the EC50 in data set [2] turned out to be 7 nM. Also, the bioavailability in data set [3] (intragastric (oral) administration 1.0 mg/kg, read-out: Bioavailability F) is 75%. For the same compound, the AUC in data set [3] (intragastric (oral) administration 1.0 mg/kg, read-out: Concentration integral AUC) stood at 24.4 µM·h. In addition, in data set [3] (single intravenous injection 1.0 mg/kg, read-out: Clearance rate), the clearance is 1.2 mL/min/kg. Also, the half-life in data set [3] (single intravenous injection 1.0 mg/kg, read-out: Half-life T1/2 (converted)) is 6 h.
